Reference: paper PMC10941402, “Abcg2a is the functional homolog of human ABCG2 expressed at the zebrafish blood–brain barrier” (Fluids and Barriers of the CNS, 2024)

Tests used:
Abcg2a [1] = test system: T1, Abcg2a; test: cells; design: species or system HEK-293; CellTiter-Glo growth inhibition of transporter-transfected HEK-293 cells, luminescence; conditions: Homo sapiens, HEK293, 72 h; cells expressing zebrafish Abcg2a
T1 construct: HEK-293 HEK-293 stably expressing full-length FLAG-tagged zebrafish Abcg2a
Description: (§1) Trypsinized cells were plated at 5,000 cells/well in white opaque 96-well plates and allowed to adhere overnight. Drugs were then added, with each concentration tested in triplicate, and cells were incubated for 72 h. Cell growth was assessed using the CellTiter-Glo (Promega, Madison, WI) reagent, according to the manufacturer’s instructions. Luminescence was measured on a Tecan Infinite M200 Pro microplate reader (Tecan Group, Morrisville, NC, RRID:SCR_019033). […] Relative resistance (RR) values are the ratio of the GI50 values of the transporter transfected versus the empty vector-transfected HEK-293 cells. HEK-293 cells (ATCC, Manassas, VA, RRID:CVCL_0045) were transfected with empty pcDNA3.1 vector or with vector containing full-length abcg2a (NM_001042775), abcg2b (NM_001039066), abcg2c (XM_005156523) or abcg2d (NM_001042772) (all from Genscript, Piscataway, NJ), flanked by a C-terminal FLAG tag sequence. The R-5 cell line was generated as previously described from HEK-293 cells transfected with full-length ABCG2 [18]. Transfected cells were cultured at 37 °C and at 5% CO2 in EMEM (Quality Biological, Gaithersburg, MD) supplemented with 10% fetal calf serum, penicillin/streptomycin (Quality Biological) and 2 mg/ml G418 (Mediatech, Manassas, VA). To determine if zebrafish Abcg2a-d were able to confer resistance to known cytotoxic substrates of ABCG2, cytotoxicity assays were performed and quantified by the drug concentration that produces 50% cell growth inhibition (GI50). Among the zebrafish Abcg2 homologs, Abcg2a conferred the highest level of resistance to MLN7243 (a ubiquitin activating enzyme inhibitor), MLN4924 (NEDD8 activating enzyme inhibitor), and CUDC-101 (histone deacetylase and receptor tyrosine kinase inhibitor) (Fig. 2, Additional file 5: Table S1). Abcg2d conferred the least resistance to THZ 531 (CDK12/13 inhibitor), CUDC-101, and gedatolisib (an inhibitor of phosphatidylinositol-3-kinase (PI3K) and mammalian target of rapamycin (mTOR)). […] Abcg2b and Abcg2c often conferred similar levels of resistance to the same substates, as evidenced by results with MLN7243, MLN4924, THZ 531, CUDC-101 and gedatolisib.

Abcg2d = test system: T2, Abcg2d; test: cells; design: species or system HEK-293; CellTiter-Glo growth inhibition of transporter-transfected HEK-293 cells, luminescence; conditions: Homo sapiens, HEK293, 72 h; cells expressing zebrafish Abcg2d
T2 construct: HEK-293 HEK-293 stably expressing full-length FLAG-tagged zebrafish Abcg2d
Description: as §1

Empty vector = test system: T3, Empty vector; test: cells; design: species or system HEK-293; CellTiter-Glo growth inhibition of transporter-transfected HEK-293 cells, luminescence; conditions: Homo sapiens, HEK293, 72 h
T3 construct: HEK-293 HEK-293 stably transfected with empty pcDNA3.1
Description: as §1

ABCG2 [2] = test system: T4, ABCG2; test: cells; design: species or system HEK-293; CellTiter-Glo growth inhibition of transporter-transfected HEK-293 cells, luminescence; conditions: HEK293, 72 h; cells expressing human ABCG2
T4 construct: HEK-293 R-5 HEK-293 stably expressing full-length human ABCG2 (R-5)
Description: as §1

Abcg2c [3] = test system: T5, Abcg2c; test: cells; design: species or system HEK-293; CellTiter-Glo growth inhibition of transporter-transfected HEK-293 cells, luminescence; conditions: Homo sapiens, HEK293, 72 h; cells expressing zebrafish Abcg2c
T5 construct: HEK-293 HEK-293 stably expressing full-length FLAG-tagged zebrafish Abcg2c
Description: as §1

Abcg2b [4] = test system: T6, Abcg2b; test: cells; design: species or system HEK-293; CellTiter-Glo growth inhibition of transporter-transfected HEK-293 cells, luminescence; conditions: Homo sapiens, HEK293, 72 h; cells expressing zebrafish Abcg2b
T6 construct: HEK-293 HEK-293 stably expressing full-length FLAG-tagged zebrafish Abcg2b
Description: as §1

Abcg2a [5] = biological target: T7, Abcg2a (Danio rerio, UniProt Q2Q447); test: flow cytometry efflux assay; assay type: cell-based; conditions: 5 µM substrate, 37 °C, with and without inhibitor
T7 construct: homodimer
T7 sequence (Q2Q447 1-643): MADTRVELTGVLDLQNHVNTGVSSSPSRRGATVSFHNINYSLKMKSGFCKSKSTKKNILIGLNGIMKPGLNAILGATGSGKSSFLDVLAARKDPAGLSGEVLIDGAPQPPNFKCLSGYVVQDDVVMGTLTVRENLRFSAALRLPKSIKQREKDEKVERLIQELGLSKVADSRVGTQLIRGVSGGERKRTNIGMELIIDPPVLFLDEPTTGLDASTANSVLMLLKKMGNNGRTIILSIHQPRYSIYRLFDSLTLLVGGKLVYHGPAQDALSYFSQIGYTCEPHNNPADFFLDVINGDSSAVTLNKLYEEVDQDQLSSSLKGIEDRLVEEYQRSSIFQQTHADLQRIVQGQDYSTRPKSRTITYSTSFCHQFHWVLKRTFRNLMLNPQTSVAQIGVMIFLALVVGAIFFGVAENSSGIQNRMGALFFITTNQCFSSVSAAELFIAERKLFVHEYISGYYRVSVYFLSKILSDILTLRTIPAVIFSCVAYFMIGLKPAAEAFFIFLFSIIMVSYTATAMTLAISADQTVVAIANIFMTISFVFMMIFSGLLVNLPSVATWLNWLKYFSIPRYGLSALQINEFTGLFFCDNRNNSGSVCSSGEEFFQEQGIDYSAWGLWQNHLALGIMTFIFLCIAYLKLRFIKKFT

Abcg2b [6] = biological target: T8, Abcg2b (Danio rerio, UniProt Q2Q446); test: flow cytometry efflux assay; assay type: cell-based; conditions: 5 µM substrate, 37 °C, with and without inhibitor
T8 construct: homodimer
T8 sequence (Q2Q446 1-618): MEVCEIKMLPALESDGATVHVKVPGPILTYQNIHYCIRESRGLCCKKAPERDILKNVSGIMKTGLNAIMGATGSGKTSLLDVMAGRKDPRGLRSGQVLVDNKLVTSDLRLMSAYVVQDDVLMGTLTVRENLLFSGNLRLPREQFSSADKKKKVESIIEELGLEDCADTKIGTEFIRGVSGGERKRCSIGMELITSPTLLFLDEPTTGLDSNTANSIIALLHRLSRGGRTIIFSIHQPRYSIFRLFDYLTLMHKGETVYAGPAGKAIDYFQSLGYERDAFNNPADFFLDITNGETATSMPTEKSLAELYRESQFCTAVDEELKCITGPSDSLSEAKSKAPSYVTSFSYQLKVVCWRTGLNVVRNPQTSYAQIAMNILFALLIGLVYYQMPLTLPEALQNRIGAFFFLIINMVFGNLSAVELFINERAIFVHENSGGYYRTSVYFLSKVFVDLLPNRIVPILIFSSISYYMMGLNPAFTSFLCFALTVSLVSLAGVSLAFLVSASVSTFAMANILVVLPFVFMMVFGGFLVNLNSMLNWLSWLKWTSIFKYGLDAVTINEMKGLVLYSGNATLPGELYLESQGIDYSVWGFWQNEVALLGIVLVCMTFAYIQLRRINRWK

Abcg2c [7] = biological target: T9, Abcg2c (Danio rerio, UniProt A0A8M2B3F2); test: flow cytometry efflux assay; assay type: cell-based; conditions: 5 µM substrate, 37 °C, with and without inhibitor
T9 construct: homodimer
T9 sequence (A0A8M2B3F2 1-640): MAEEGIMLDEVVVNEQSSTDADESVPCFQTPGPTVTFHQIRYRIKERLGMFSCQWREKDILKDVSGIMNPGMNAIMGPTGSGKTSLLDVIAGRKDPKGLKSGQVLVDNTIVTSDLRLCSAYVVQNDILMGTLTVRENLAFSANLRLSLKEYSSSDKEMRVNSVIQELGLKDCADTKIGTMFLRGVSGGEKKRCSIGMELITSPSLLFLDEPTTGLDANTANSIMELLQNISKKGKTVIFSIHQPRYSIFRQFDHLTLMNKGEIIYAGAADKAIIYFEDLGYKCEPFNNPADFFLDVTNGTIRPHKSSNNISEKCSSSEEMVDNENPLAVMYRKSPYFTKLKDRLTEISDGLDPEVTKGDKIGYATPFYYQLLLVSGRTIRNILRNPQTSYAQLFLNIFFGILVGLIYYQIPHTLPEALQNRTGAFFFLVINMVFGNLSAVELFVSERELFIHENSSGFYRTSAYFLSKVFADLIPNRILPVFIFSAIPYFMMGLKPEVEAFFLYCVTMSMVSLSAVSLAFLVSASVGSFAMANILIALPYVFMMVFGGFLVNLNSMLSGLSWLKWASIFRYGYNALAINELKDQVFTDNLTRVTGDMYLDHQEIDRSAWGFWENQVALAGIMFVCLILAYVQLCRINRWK

ABCG2 [8] = biological target: T10, ABCG2 (Homo sapiens, UniProt Q9UNQ0); test: flow cytometry efflux assay; assay type: cell-based; conditions: 5 µM substrate, 37 °C, with and without inhibitor
T10 construct: homodimer
T10 sequence (Q9UNQ0 1-655): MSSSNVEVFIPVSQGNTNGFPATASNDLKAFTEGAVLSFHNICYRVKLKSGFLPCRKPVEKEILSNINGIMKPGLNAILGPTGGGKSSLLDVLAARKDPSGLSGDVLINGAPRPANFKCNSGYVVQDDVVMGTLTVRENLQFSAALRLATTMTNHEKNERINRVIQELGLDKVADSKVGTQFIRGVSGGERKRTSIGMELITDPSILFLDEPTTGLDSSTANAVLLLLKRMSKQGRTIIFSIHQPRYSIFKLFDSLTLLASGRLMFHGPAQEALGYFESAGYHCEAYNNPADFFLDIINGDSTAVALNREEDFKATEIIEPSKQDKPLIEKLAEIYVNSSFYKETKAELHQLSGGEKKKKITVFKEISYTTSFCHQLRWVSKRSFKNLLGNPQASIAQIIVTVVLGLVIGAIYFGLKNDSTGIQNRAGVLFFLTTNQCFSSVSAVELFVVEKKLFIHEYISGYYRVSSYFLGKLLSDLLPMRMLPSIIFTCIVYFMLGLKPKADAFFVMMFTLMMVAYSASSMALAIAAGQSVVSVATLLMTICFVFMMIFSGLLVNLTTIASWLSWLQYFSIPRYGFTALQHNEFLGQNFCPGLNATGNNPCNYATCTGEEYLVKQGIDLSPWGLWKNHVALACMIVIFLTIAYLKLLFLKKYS

Structure (SMILES): C#Cc1cccc(Nc2ncnc3cc(OC)c(OCCCCCCC(=O)NO)cc23)c1 [CUDC-101]
- GI50 (Abcg2a [1]): 5420 ± 1400 nM
- GI50 (Abcg2d): 1040 ± 260 nM
- GI50 (Empty vector): 780 ± 100 nM
- GI50 (ABCG2 [2]): 11300 ± 2000 nM
- GI50 (Abcg2c [3]): 1690 ± 290 nM
- GI50 (Abcg2b [4]): 2090 ± 190 nM

Structure (SMILES): CN(C)C1CCN(C(=O)c2ccc(NC(=O)Nc3ccc(-c4nc(N5CCOCC5)nc(N5CCOCC5)n4)cc3)cc2)CC1 [Gedatolicib, gedatolisib]
- GI50 (Abcg2a [1]): 1390 ± 190 nM
- GI50 (Abcg2d): 820 ± 500 nM
- GI50 (Empty vector): 200 ± 10 nM
- GI50 (ABCG2 [2]): 3840 ± 1500 nM
- GI50 (Abcg2c [3]): 3260 ± 490 nM
- GI50 (Abcg2b [4]): 4060 ± 1500 nM

Structure (SMILES): NS(=O)(=O)OC[C@@H]1C[C@@H](n2ccc3c(N[C@H]4CCc5ccccc54)ncnc32)C[C@@H]1O [MLN 4924]
- GI50 (Abcg2a [1]): 2440 ± 170 nM
- GI50 (Abcg2d): 353 ± 190 nM
- GI50 (Empty vector): 420 ± 90 nM
- GI50 (ABCG2 [2]): 7320 ± 1700 nM
- GI50 (Abcg2c [3]): 487 ± 40 nM
- GI50 (Abcg2b [4]): 520 ± 52 nM

Structure (SMILES): NS(=O)(=O)OC[C@H]1C[C@@H](Nc2ccnc3cc(-c4cccc(SC(F)(F)F)c4)nn23)[C@H](O)[C@@H]1O [MLN 7243]
- GI50 (Abcg2d): 179 ± 23 nM
- GI50 (Empty vector): 69 ± 5 nM
- GI50 (ABCG2 [2]): 15400 ± 220 nM
- GI50 (Abcg2c [3]): 200 ± 20 nM
- GI50 (Abcg2b [4]): 151 ± 51 nM

Structure (SMILES): Cc1nc(Nc2[nH]nc3c2CN(C(=O)N[C@H](CN(C)C)c2ccccc2)C3(C)C)c2sccc2n1 [PF-3758309]
- GI50 (Abcg2a [1]): 1260 ± 530 nM
- GI50 (Abcg2d): 1540 ± 650 nM
- GI50 (Empty vector): 68 ± 30 nM
- GI50 (ABCG2 [2]): 2360 ± 540 nM
- GI50 (Abcg2c [3]): 1970 ± 710 nM
- GI50 (Abcg2b [4]): 413 ± 150 nM

Structure (SMILES): CN(C)C/C=C/C(=O)Nc1ccc(C(=O)N2CCC[C@@H](Nc3ncc(Cl)c(-c4c[nH]c5ccccc45)n3)C2)cc1 [THZ 531]
- GI50 (Abcg2a [1]): 18300 ± 3600 nM
- GI50 (Abcg2d): 3990 ± 240 nM
- GI50 (Empty vector): 1290 ± 140 nM
- GI50 (ABCG2 [2]): 65900 ± 3700 nM
- GI50 (Abcg2c [3]): 11400 ± 1000 nM
- GI50 (Abcg2b [4]): 10500 nM

Structure (SMILES): O=C1c2c(O)ccc(O)c2C(=O)c2c(NCCNCCO)ccc(NCCNCCO)c21 [mitoxantrone]
- flow cytometry efflux assay (Abcg2a [5]): rightward inhibited peak shift for Abcg2a with mitoxantrone

Structure (SMILES): C=Cc1c(C)c2cc3nc(c4c5[nH]c(cc6nc(cc1[nH]2)C(C)=C6CC)c(C)c5C(=O)[C@@H]4C(=O)OC)[C@@H](CCC(=O)O)[C@@H]3C [pheophorbide a]
- flow cytometry efflux assay (Abcg2a [5]): to a greater extent with pheophorbide a, indicating Abcg2a can efflux both substrates
- flow cytometry efflux assay (Abcg2b [6]): Pheophorbide a also appears to be a substrate for Abcg2b and Abcg2c
- flow cytometry efflux assay (Abcg2c [7]): Pheophorbide a also appears to be a substrate for Abcg2b and Abcg2c
- flow cytometry efflux assay (ABCG2 [8]): ABCG2-expressing cells exhibit an increase in intracellular fluorescence
